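Five compound concentrations were applied to cells in 96-well plates for 48 hours; endpoints were derived by simple linear interpolation of the resulting dose-response curve. TGI: concentration producing complete growth inhibition.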
How the values were obtained:
Assay in all cases: inhibition of tumour cell growth, NCI panel, 48 h
[1] = system: UACC-62 melanoma
[2] = system: OVCAR-5 ovarian
[3] = system: HCT-15 colon
[4] = system: NCI-H23 lung
[5] = system: HCT-116 colon
[6] = system: NCI/ADR-RES ovarian
[7] = system: EKVX NSCLC
[8] = system: SF-539 CNS
[9] = system: OVCAR-3 ovarian
[10] = system: MOLT-4 leukemia
[11] = system: IGROV1 ovarian
[12] = system: CAKI-1 renal
[13] = system: HL-60(TB) leukemia
[14] = system: UACC-257 melanoma
[15] = system: U251 CNS
[16] = system: SF-295 CNS
[17] = system: SNB-75 CNS
[18] = system: ACHN renal
[19] = system: 786-0 renal
[20] = system: M14 melanoma
[21] = system: T-47D breast
[22] = system: DU-145 prostate
[23] = system: HT29 colon
[24] = system: MDA-MB-231 breast
[25] = system: SF-268 CNS
[26] = system: HOP-62 NSCLC
[27] = system: PC-3 prostate
[28] = system: SK-MEL-5 melanoma
[29] = system: K-562 leukemia
[30] = system: A549 NSCLC
[31] = system: RXF 393 renal
[32] = system: LOX IMVI melanoma
[33] = system: NCI-H460 lung
[34] = system: HOP-92 NSCLC
[35] = system: SNB-19 CNS
[36] = system: COLO 205 colon
[37] = system: SK-OV-3 ovarian
[38] = system: SK-MEL-2 melanoma
[39] = system: NCI-H226 lung
[40] = system: TK-10 renal
[41] = system: BT-549 breast
[42] = system: OVCAR-8 ovarian
[43] = system: SK-MEL-28 melanoma
[44] = system: KM12 colon
[45] = system: A498 renal
[46] = system: HS 578T breast
[47] = system: MCF7 breast
[48] = system: SR leukemia
[49] = system: OVCAR-4 ovarian
[50] = system: SN12C renal
[51] = system: MDA-N
[52] = system: HCC-2998 colon
[53] = system: CCRF-CEM leukemia
[54] = system: SW-620 colon
[55] = system: UO-31 renal
[56] = system: MDA-MB-435
[57] = system: RPMI-8226 leukemia
[58] = system: MALME-3M melanoma
[59] = system: NCI-H522 lung

## O=C1c2cc3ccccc3cc2C2(c3ccc(Cl)cc3)NCCN12 (stereo not given)
[1]
  TGI: 55.4 µM
[2]
  TGI: 81 µM
[3]
  TGI: > 100 µM
[4]
  TGI: 64.1 µM
[5]
  TGI: 45 µM
[6]
  TGI: > 100 µM
[7]
  TGI: 95.9 µM
[8]
  TGI: 61.5 µM
[9]
  TGI: 53.8 µM
[10]
  TGI: > 100 µM
[11]
  TGI: > 100 µM
[12]
  TGI: > 100 µM
[13]
  TGI: 80 µM
[14]
  TGI: > 100 µM
[15]
  TGI: > 100 µM
[16]
  TGI: 62 µM
[17]
  TGI: > 100 µM
[18]
  TGI: > 100 µM
[19]
  TGI: 99.2 µM
[20]
  TGI: 92.7 µM
[21]
  TGI: > 100 µM
[22]
  TGI: > 100 µM
[23]
  TGI: > 100 µM
[24]
  TGI: > 100 µM
[25]
  TGI: > 100 µM
[26]
  TGI: 86.3 µM
[27]
  TGI: 94.9 µM
[28]
  TGI: 40.4 µM
[29]
  TGI: > 100 µM
[30]
  TGI: 87.4 µM
[31]
  TGI: 42.3 µM
[32]
  TGI: 56.3 µM
[33]
  TGI: > 100 µM
[34]
  TGI: > 100 µM
[35]
  TGI: 68.9 µM
[36]
  TGI: 36.3 µM
[37]
  TGI: 68.9 µM
[38]
  TGI: 45.5 µM
[39]
  TGI: > 100 µM
[40]
  TGI: > 100 µM
[41]
  TGI: > 100 µM
[42]
  TGI: > 100 µM
[43]
  TGI: > 100 µM
[44]
  TGI: 49.3 µM
[45]
  TGI: > 100 µM
[46]
  TGI: > 100 µM
[47]
  TGI: 77.9 µM
[48]
  TGI: > 100 µM
[49]
  TGI: > 100 µM
[50]
  TGI: > 100 µM
[51]
  TGI: > 100 µM
[52]
  TGI: 60.4 µM
[53]
  TGI: > 100 µM
[54]
  TGI: > 100 µM
[55]
  TGI: > 100 µM
[56]
  TGI: > 100 µM
[57]
  TGI: 98.2 µM

## CN1CCN(CC(=O)N2c3ccccc3Sc3cc4ccccc4cc32)CC1
[1]
  TGI: 31.6 µM
[2]
  TGI: 29.8 µM
[3]
  TGI: 34.7 µM
[4]
  TGI: 40.1 µM
[5]
  TGI: 22.2 µM
[6]
  TGI: 34.4 µM
[7]
  TGI: 25.5 µM
[8]
  TGI: 30.9 µM
[9]
  TGI: 26.1 µM
[10]
  TGI: 28.4 µM
[11]
  TGI: 32.8 µM
[12]
  TGI: 26 µM
[13]
  TGI: 4.55 µM
[14]
  TGI: 24.5 µM
[15]
  TGI: 28.7 µM
[16]
  TGI: 28.3 µM
[17]
  TGI: 27.8 µM
[18]
  TGI: 30.3 µM
[19]
  TGI: 26.8 µM
[20]
  TGI: 29 µM
[21]
  TGI: 46.1 µM
[22]
  TGI: 29.3 µM
[23]
  TGI: 16.4 µM
[24]
  TGI: 27.7 µM
[25]
  TGI: 25.6 µM
[26]
  TGI: 33 µM
[58]
  TGI: 28.4 µM
[27]
  TGI: 27.6 µM
[28]
  TGI: 34.7 µM
[29]
  TGI: 33.6 µM
[30]
  TGI: 30.3 µM
[31]
  TGI: 27 µM
[32]
  TGI: 33.4 µM
[33]
  TGI: 32.8 µM
[34]
  TGI: 24.6 µM
[35]
  TGI: 35.3 µM
[36]
  TGI: 36.2 µM
[37]
  TGI: 30.3 µM
[38]
  TGI: 31.9 µM
[39]
  TGI: 42.8 µM
[40]
  TGI: 29.5 µM
[41]
  TGI: 30.2 µM
[42]
  TGI: 36.5 µM
[43]
  TGI: 28.9 µM
[44]
  TGI: 31.8 µM
[45]
  TGI: 27.9 µM
[46]
  TGI: 28.3 µM
[47]
  TGI: 31.6 µM
[48]
  TGI: 31.2 µM
[49]
  TGI: 29.1 µM
[50]
  TGI: 25.2 µM
[51]
  TGI: 22.4 µM
[53]
  TGI: 83.6 µM
[59]
  TGI: 31.9 µM
[54]
  TGI: 50.9 µM
[55]
  TGI: 26.7 µM
[56]
  TGI: 23.7 µM
[57]
  TGI: 34.1 µM

Source: PubChem BioAssay (NCI)
